From patent publication US20100022582A1, “Tetrahydroisoquinoline Compound and Medicinal Use Thereof” (priority 2005, published 2010)

Columns and labels:
[1] = tested on: liver ACAT; assay: ACAT inhibitory activity (rabbit liver microsome, cholesteryl oleate production); format: biochemical, Japanese white rabbits; settings: 37° C. for 20 min
Experimental: Male Japanese white rabbits (body weight 2-2.5 kg) were bred on 100 g of a high cholesterol feed (feed added with cholesterol 1%, CLEA Japan, Inc.) daily for 4 weeks and sacrificed by exsanguination under anesthesia. The liver was removed, homogenated and centrifuged at 10,000 rpm and 4° C. for 15 min. The obtained supernatant was further centrifuged at 41,000 rpm and 4° C. for 60 min to give a microsome fraction. To a 0.15 M phosphate buffer were added the microsome suspension as an enzyme specimen, dimethyl sulfoxide (DMSO) or a solution (3 μL) of a test compound in DMSO and [1-14C]-oleoyl-CoA to be a reaction substrate to the total amount of 300 μL. After incubation at 37° C. for 20 min, a mixed solution of chloroform-methanol was added to quench the reaction. Water was added thereto and mixed, and the chloroform layer was separated. The solvent was evaporated to dryness and the residue was redissolved in n-hexane. The resulting solution was subjected to thin layer chromatography using a silica gel plate. The spot of cholesteryl oleate on the silica gel plate was scraped and quantified on a liquid scintillation counter. The ACAT inhibitory activity of the test compound is shown in cholesteryl oleate production inhibitory rate (%) [level of inhibition of cholesteryl oleate production as compared to the control].

[2] = tested on: brain homogenate lipid peroxidation; assay: Lipid peroxidation-inhibitory action (brain homogenate, MDA); format: biochemical, SD rat; settings: rat brain homogenate, 37° C. for 30 min
Experimental: The brain was removed from male SD rat, and a 50 mM phosphate buffer (pH 7.4, 5-fold amount of brain weight) was added. The mixture was homogenized under ice-cooling for 30 sec, and centrifuged at 4° C., 3200 rpm for 10 min. The supernatant was diluted 5-fold with 50 mM phosphate buffer to give a brain homogenate. A test compound (10 μL) was placed in a glass test tube, the brain homogenate (1 mL) was added, and the mixture was incubated at 37° C. for 30 min. 20% Trichloroacetic acid (1 mL) was added to quench the reaction. The reaction mixture was centrifuged at room temperature, 4000 rpm for 10 min. Thiobarbituric acid (0.2 mL) was added to the supernatant (1 mL) and the mixture was heated at 95° C. for 15 min. The absorbance at 532 nm was measured, and lipid peroxide was quantified as malondialdehyde (MDA). The MDA level was compared between the control and the test compound-added sample, and the lipid peroxidation inhibitory rate was calculated.

[3] = tested on: THP-1 cell-derived macrophage; assay: Cholesterol ester accumulation-inhibitory activity (THP-1 cell-derived macrophage foam cell formation); format: cell-based; settings: THP-1 macrophage, acetyl LDL, 3 days
Experimental: THP-1 cells (DAINIPPON PHARMACEUTICAL CO., LTD.) were subcultured in RPMI-1640 medium containing 10% fetal calf serum (FBS), and cells at 6-13th passage after purchase were used. The cells were suspended in FBS-containing RPMI-1640 medium to give a suspension having a concentration of 4×10^5 cells/mL. The cell suspension was seeded on 12-well microplate by 1 mL, and treated with phorbol 12-myristate 13-acetate (PMA, 200 nM) as a differentiation inducer into macrophage. Then, acetyl LDL (400 μg/mL) separately prepared from LDL derived from plasma of a rabbit with genetic hyperlipidemia (KHC rabbit, Japan Laboratory Animals Inc.) was added. A test compound further dissolved in dimethyl sulfoxide (DMSO) and diluted with FBS-containing RPMI-1640 medium and a control solvent were applied. After cultivation in a carbon dioxide incubator for 3 days, the cells were washed with phosphate-buffered saline (pH 7.0), and the lipid was extracted with hexane-isopropanol (3:2). In addition, the cells were lysed with 1N-NaOH, and the protein content was measured. Free cholesterol and cholesterol ester in the lipid extraction sample were measured according to the method of Kunitomo et al. [Japan. J. Pharmacol., 34, 153-158 (1984)]. Cholesterol esters in the control cells and the cells treated with the test compound were compared, and the cholesterol ester accumulation inhibitory rate of the test compound was calculated.

Row | SMILES | liver ACAT inhibition rate (%) (concentration: 10^−6 M) [1] | inhibitory rate (%) (10^−4M), lipid peroxidation [2] | cholesteryl ester accumulation inhibitory rate (%) (concentration: 10^−6 M) [3]
1 | CCCCCCCC(=O)N1Cc2ccccc2C[C@H]1C(=O)Nc1c(C(C)C)cccc1C(C)C [Example 3, N-(2,6-diisopropylphenyl)-2-octanoyl-1,2,3,4-tetrahydroisoquinoline-(3S)-carboxamide] | 93.3% | – | –
2 | CCCCCCCC(=O)N1Cc2ccccc2C[C@H]1C(=O)Nc1c(C)cc(C)cc1C [Example 9, 2-octanoyl-N-(2,4,6-trimethylphenyl)-1,2,3,4-tetrahydroisoquinoline-(3S)-carboxamide] | 88.6% | – | –
3 | CCCCC(=O)N1Cc2ccccc2C[C@H]1C(=O)Nc1cc(C(C)(C)C)c(O)c(C(C)(C)C)c1 [Example 13, N-(3,5-di-tert-butyl-4-hydroxyphenyl)-2-pentanoyl-1,2,3,4-tetrahydroisoquinoline-(3S)-carboxamide] | – | 100.1% | –
4 | CCC(C)(C)C(=O)N1Cc2ccccc2C[C@H]1C(=O)Nc1c(C)cc(C)c(NS(C)(=O)=O)c1C [Example 19, 2-(2,2-dimethylbutyryl)-N-(3-methanesulfonylamino-2,4,6-trimethylphenyl)-1,2,3,4-tetrahydroisoquinoline-(3S)-carboxamide] | – | – | 66.4%
5 | CCCCCCCC(=O)N1Cc2ccccc2C[C@@H]1C(=O)Nc1c(C)cc(C)cc1C [Example 26, 2-octanoyl-N-(2,4,6-trimethylphenyl)-1,2,3,4-tetrahydroisoquinoline-(3R)-carboxamide] | 83.8% | – | –
6 | CCCCCCCC(=O)N1Cc2ccccc2C[C@H]1C(=O)Nc1cc(C)c(O)c(C)c1C [Example 49, N-(4-hydroxy-2,3,5-trimethylphenyl)-2-octanoyl-1,2,3,4-tetrahydroisoquinoline-(3S)-carboxamide] | 96.8% | – | –
7 | CCCC(=O)N1Cc2cc(N(C)C)ccc2C[C@H]1C(=O)Nc1cc(C)c(O)c(C)c1C.Cl [Example 71, 2-butyryl-7-dimethylamino-N-(4-hydroxy-2,3,5-trimethylphenyl)-1,2,3,4-tetrahydroisoquinoline-(3S)-carboxamide hydrochloride] | – | – | 79.2%
8 | CCCCCC(=O)N1Cc2cc(N(C)C)ccc2C[C@@H]1C(=O)Nc1cc(C)c(O)c(C)c1C.Cl [Example 74, 7-dimethylamino-2-hexanoyl-N-(4-hydroxy-2,3,5-trimethylphenyl)-1,2,3,4-tetrahydroisoquinoline-(3R)-carboxamide hydrochloride] | – | – | 74.7%
9 | CCC(C)(C)C(=O)N1Cc2cc(N(C)C)ccc2C[C@@H]1C(=O)Nc1cc(C)c(O)c(C)c1C.Cl [Example 75, 7-dimethylamino-2-(2,2-dimethylbutyryl)-N-(4-hydroxy-2,3,5-trimethylphenyl)-1,2,3,4-tetrahydroisoquinoline-(3R)-carboxamide hydrochloride] | 88.8% | – | 93.4%
10 | CCCCCCCC(=O)N1Cc2cc(N(C)C)ccc2C[C@H]1C(=O)Nc1c(C)cc(C)cc1C [Example 76, 7-dimethylamino-2-octanoyl-N-(2,4,6-trimethylphenyl)-1,2,3,4-tetrahydroisoquinoline-(3S)-carboxamide] | 76.7% | – | –
11 | CCCCCC(=O)N1Cc2cc(N)ccc2C[C@H]1C(=O)Nc1cc(C)c(O)c(C)c1C.Cl [Example 80, 7-amino-2-hexanoyl-N-(4-hydroxy-2,3,5-trimethylphenyl)-1,2,3,4-tetrahydroisoquinoline-(3S)-carboxamide hydrochloride] | 93.4% | – | 94.5%
12 | CCCCCC(=O)N1Cc2cc(N(C)C)ccc2C[C@H]1C(=O)Nc1cc(C)c(O)c(C)c1C.Cl [Example 83, 7-dimethylamino-2-hexanoyl-N-(4-hydroxy-2,3,5-trimethylphenyl)-1,2,3,4-tetrahydroisoquinoline-(3S)-carboxamide hydrochloride] | 97.0% | – | 100.2%
13 | CCC(=O)N1Cc2cc(N3CCCC3)ccc2C[C@H]1C(=O)Nc1cc(C)c(O)c(C)c1C.Cl [Example 91, N-(4-hydroxy-2,3,5-trimethylphenyl)-2-propionyl-7-(pyrrolidin-1-yl)-1,2,3,4-tetrahydroisoquinoline-(3S)-carboxamide hydrochloride] | – | – | 71.1%
14 | Cc1cc(NC(=O)[C@@H]2Cc3ccc(N4CCCC4)cc3CN2C(=O)C(C)C)c(C)c(C)c1O.Cl [Example 93, N-(4-hydroxy-2,3,5-trimethylphenyl)-2-isobutyryl-7-(pyrrolidin-1-yl)-1,2,3,4-tetrahydroisoquinoline-(3S)-carboxamide hydrochloride] | – | – | 83.4%
15 | CCCCCC(=O)N1Cc2cc(NS(C)(=O)=O)ccc2C[C@H]1C(=O)Nc1cc(C)c(O)c(C)c1C [Example 95, 2-hexanoyl-N-(4-hydroxy-2,3,5-trimethylphenyl)-7-methanesulfonylamino-1,2,3,4-tetrahydroisoquinoline-(3S)-carboxamide] | – | – | 80.4%
16 | CCC(C)(C)C(=O)N1Cc2cc(N)ccc2C[C@H]1C(=O)Nc1cc(C)c(O)c(C)c1C.Cl [Example 104, 7-amino-2-(2,2-dimethylbutyryl)-N-(4-hydroxy-2,3,5-trimethylphenyl)-1,2,3,4-tetrahydroisoquinoline-(3S)-carboxamide hydrochloride] | 80.6% | – | 77.3%
17 | Cc1cc(NC(=O)[C@@H]2Cc3ccc(NS(C)(=O)=O)cc3CN2C(=O)CC(C)(C)C)c(C)c(C)c1O [Example 106, 2-(3,3-dimethylbutyryl)-N-(4-hydroxy-2,3,5-trimethylphenyl)-7-methanesulfonylamino-1,2,3,4-tetrahydroisoquinoline-(3S)-carboxamide] | 89.6% | – | 76.9%
18 | CCCCCC(=O)N1Cc2cc(O)ccc2C[C@H]1C(=O)Nc1c(C(C)C)cc(N)cc1C(C)C.Cl [Example 114, N-(4-amino-2,6-diisopropylphenyl)-2-hexanoyl-7-hydroxy-1,2,3,4-tetrahydroisoquinoline-(3S)-carboxamide hydrochloride] | 87.5% | – | –
19 | CCCCCC(=O)N1Cc2cc(O)ccc2C[C@H]1C(=O)Nc1cc(C)c(O)c(C)c1C [Example 116, 2-hexanoyl-7-hydroxy-N-(4-hydroxy-2,3,5-trimethylphenyl)-1,2,3,4-tetrahydroisoquinoline-(3S)-carboxamide] | 97.2% | – | –
20 | CCCCCC(=O)N1Cc2cc(OCCN3CCCC3)ccc2C[C@H]1C(=O)Nc1cc(C)c(O)c(C)c1C.Cl [Example 118, 2-hexanoyl-N-(4-hydroxy-2,3,5-trimethylphenyl)-7-[2-(pyrrolidin-1-yl)ethoxy]-1,2,3,4-tetrahydroisoquinoline-(3S)-carboxamide hydrochloride] | – | – | 68.6%
21 | CCCCCC(=O)N1Cc2cc(OCCCO)ccc2C[C@H]1C(=O)Nc1cc(C)c(O)c(C)c1C [Example 119, 2-hexanoyl-7-(3-hydroxypropoxy)-N-(4-hydroxy-2,3,5-trimethylphenyl)-1,2,3,4-tetrahydroisoquinoline-(3S)-carboxamide] | – | – | 84.5%
22 | CCCCCC(=O)N1Cc2cc(N3CCNCC3)ccc2C[C@H]1C(=O)Nc1cc(C)c(O)c(C)c1C [Example 121, 2-hexanoyl-N-(4-hydroxy-2,3,5-trimethylphenyl)-7-(piperazin-1-yl)-1,2,3,4-tetrahydroisoquinoline-(3S)-carboxamide] | – | – | 86.8%
